Experimental data taken from paper PMC10453699 (Current Issues in Molecular Biology, 2023).
“And” between values parts separate entries of the source, which are not always exact repeats. Identical values can stand only once. “Also recorded” adds a separate entry of the source. Like-named read-outs stand apart in the source and are kept apart here.

Columns and labels:
[1] = tested on: human small intestinal epithelial cells (HSEIC); conditions: for cell viability (MTT absorbance at 595 nm): vs vehicle control, doses given with the value; for Long-Term Cytotoxicity / Short-Term Cytotoxicity: MTT in HSEIC, N/A = no cytotoxicity seen; for Long-Term Cytotoxicity: doses cytotoxic after long exposure; for Short-Term Cytotoxicity: doses cytotoxic after short exposure; for cytotoxic effects overall (MTT): over all doses and time points tested (24-96 h), or time not stated
COX-2 = assay: Western blot of COX-2 protein in TNF-α/IFN-γ-treated HSEIC; type: cell-based, human; conditions: for COX-2 protein levels relative to GAPDH: cotreatment experiments (Figures 7-15), single and combined doses given with the value
IL-6 = type: cell-based, human; conditions: cotreatment experiments (Figures 7-15), single and combined doses given with the value; vs TNF-α/IFN-γ group
[2] = tested on: porcine intestinal epithelial cells; design: method as in PMID 32735667; conditions: pretreatment with 100 μM; cited from earlier work
[3] = tested on: dextran sulfate sodium-induced colitis; design: method as in PMID 34478286; conditions: 20 mg/kg, consumed orally for 17 days; cited from earlier work
[4] = single ligands (Figure 6), vs TNF-α/IFN-γ group, doses given with the value

SMILES	cell viability (MTT absorbance at 595 nm) ([1]; 24 h exposure)	cell viability (MTT absorbance at 595 nm) ([1]; 48 h exposure)	Long-Term Cytotoxicity [1] [µM]	Short-Term Cytotoxicity [1] [µM]	cytotoxic effects overall (MTT) [1]	Fold Change of COX-2 (COX-2) [×]	Most Effective Dose (COX-2) [µM]	COX-2 protein levels relative to GAPDH (COX-2; vs TNF-α/IFN-γ group)	normalized COX-2 levels (COX-2/GAPDH) (COX-2; [4])	cell viability (MTT absorbance at 595 nm) ([1]; 96 h exposure)	IL-6 protein levels relative to GAPDH (IL-6)	cell viability (MTT absorbance at 595 nm) ([1]; 72 h exposure)	COX-2 levels decreased by (COX-2) [×]	further results
COc1cc(CNC(=O)CCCC/C=C/C(C)C)ccc1O [Cap, capsaicin]	50 μM after 24 h (p < 0.05), 100 μM after 24 and 48 h (p < 0.05), and 200 μM after 24 h (p < 0.01) and 48 h (p < 0.0001) significantly decreased the cell viability	50 μM after 24 h (p < 0.05), 100 μM after 24 and 48 h (p < 0.05), and 200 μM after 24 h (p < 0.01) and 48 h (p < 0.0001) significantly decreased the cell viability	≥0.5	≥50	did not demonstrate significant cytotoxicity in either the short- or long-term doses tested	−1.6	0.5	effectively reduced COX-2 levels	a reduction in COX-2 levels was observed only at a dose of 0.5 μM; also recorded: both 0.1 and 1 μM showed a trend towards decreased normalized COX-2/GAPDH levels					
CN(C)CCc1c[nH]c2cccc(OP(=O)(O)O)c12 [Psi, psilocybin]	significantly increased the number of viable cells at doses of 20 (p < 0.001), 40, 80, and 160 μM	increased the cell viability at 20 (p < 0.01), 40 (p < 0.001), 80, and 160 μM				−3.8	40	effectively reduced COX-2 levels and 40 μM psilocybin all significantly decreased the COX-2 levels	Psi (40 μM), Cur (0.5 μM), and Eug (50 μM) significantly reduced COX-2 levels without cytotoxic effects	80 (p < 0.05) and 160 μM (p < 0.0001) of psilocybin for 96 h significantly increased the cell viability	20 μM psilocybin and 10 μM psilocybin combined with 0.5 μM curcumin showing the most significant reductions and the 10 μM psilocybin treatment group, which significantly upregulated the IL-6 levels			normalized COX-2 levels (COX-2/GAPDH) (COX-2; single ligands (Figure 6), vs TNF-α/IFN-γ group, doses given with the value, listed as Psilocybin): significant reductions in the normalized COX-2 levels across all concentrations tested (5, 10, 20, and 40 μM)
COc1cc(/C=C/C(=O)CC(=O)/C=C/c2ccc(O)c(OC)c2)ccc1O [Cur, curcumin]		cytotoxic effects across all doses	≥1	≥5	most substantial and severe decreases in cell viability were observed at 20, 40, and 80 μM		0.5			cytotoxic effects across all doses		cytotoxic effects across all doses	3.8	Long-Term Cytotoxicity ([1]; listed as Curcumin): ≥ 1 µM; Short-Term Cytotoxicity ([1]; listed as Curcumin): ≥ 5 µM; normalized COX-2 levels (COX-2/GAPDH) (COX-2): Psi (40 μM), Cur (0.5 μM), and Eug (50 μM) significantly reduced COX-2 levels without cytotoxic effects; also recorded: significantly reduced normalized COX-2 levels at concentrations of 0.5 (p < 0.0001), 2.5 (p < 0.01), 5, and 10 μM
C=CCc1ccc(O)c(OC)c1 [Eug, eugenol]	10 (p < 0.01), 100 (p < 0.05), 200 (p < 0.01), 400 (p < 0.001), and 800 (p < 0.0001) μM of eugenol decreased the cell viability	exposure to 50 (p < 0.001), 100 (p < 0.001), 200 (p < 0.0001), 400 (p < 0.0001), and 800 μM (p < 0.0001) for 48 h significantly reduced the cell viability	≥10	≥10	demonstrated both short-term and long-term cytotoxic effects	−3.8		significantly reduced in the 10 μM of 4-AcO-DMT, 25 μM of Eug, 20 μM of 4-AcO-DMT combined with 25 μM of Eug, 40 μM of 4-AcO-DMT, and 40 μM of 4-AcO-DMT combined with 25 μM of Eug groups	Psi (40 μM), Cur (0.5 μM), and Eug (50 μM) significantly reduced COX-2 levels without cytotoxic effects	all doses reduced the cell viability	IL-6 was upregulated in the 10 μM of 4-AcO-DMT, 25 μM of Eug, 10 μM of 4-AcO-DMT combined with 25 μM of Eug, and 20 μM of 4-AcO-DMT group	only 200 (p < 0.001), 400 (p < 0.0001), and 800 μM (p < 0.0001) of eugenol significantly reduced the cell viability	3.8	LPS-induced IL-8 and TNF-α transcript levels [2]: significantly suppress the LPS-induced IL-8 and TNF-α transcript levels; Long-Term Cytotoxicity ([1]; listed as Eugenol): ≥ 10 µM; Short-Term Cytotoxicity ([1]; listed as Eugenol): ≥ 10 µM; pathological scores [3]: reduced the pathological scores; Most Effective Dose (COX-2; dose most effective in lowering COX-2 (and IL-6) in TNF-α/IFN-γ-treated HSEIC): 50 µM; normalized COX-2 levels (COX-2/GAPDH) (COX-2; single ligands (Figure 6), vs TNF-α/IFN-γ group, doses given with the value, listed as eugenol): remarkable efficacy in reducing the normalized COX-2 levels at all tested concentrations
O=C(c1ccc(F)cc1)C1CCN(CCn2c(=O)[nH]c3ccccc3c2=O)CC1 [Ket, ketanserin]							1		Only 1 (p < 0.0001) and 10 μM (p < 0.01) of ketanserin significantly lowered COX-2 levels and 20 μM of ketanserin led to a significant increase in the normalized COX-2 levels and higher doses significantly increased COX-2 levels					
CC(=O)Oc1cccc2[nH]cc(CCN(C)C)c12 [4-AcO-DMT, 4-Acetoxy-N,N-dimethyltryptamine]	doses of 10, 20, 40, 80, and 160 μM significantly increased the cell viability	doses of 10, 20, 40, 80, and 160 μM significantly increased the cell viability				−1.5	20	only the combination of 20 μM of 4-AcO-DMT with 0.5 μM of Cap and 40 μM of 4-AcO-DMT significantly reduced the COX-2 levels; also recorded: significantly reduced in the 10 μM of 4-AcO-DMT, 25 μM of Eug, 20 μM of 4-AcO-DMT combined with 25 μM of Eug, 40 μM of 4-AcO-DMT, and 40 μM of 4-AcO-DMT combined with 25 μM of Eug groups	significant decrease in the relative COX-2 levels at the concentrations of 10 (p < 0.01), 20 (p < 0.0001), and 40 μM and 5 μM significantly increased relative COX-2 levels	all doses significantly increased (p < 0.0001) the cell viability	significantly reduced only in the 20 μM of 4-AcO-DMT combined with 25 μM of Eug, 40 μM of 4-AcO-DMT, and 40 μM of 4-AcO-DMT combined with 25 μM of Eug groups; also recorded: IL-6 was upregulated in the 10 μM of 4-AcO-DMT, 25 μM of Eug, 10 μM of 4-AcO-DMT combined with 25 μM of Eug, and 20 μM of 4-AcO-DMT group	5 (p < 0.01), 10 (p < 0.0001), 20 (p < 0.01), 40, 80, and 100 μM (p < 0.0001) significantly increased the cell viability		
